Test results from publication PMC2694832, “Pharmacokinetics, tissue distribution and mass balance of radiolabeled dihydroartemisinin in male rats” (Malaria Journal, 2009).
Where two headings read alike, the source gives them in different places.

How the values were obtained:
[1] = Pharmacokinetic study of [^14C] DHA and unchanged DHA, single i.v. dose; type: in vivo, rats
Protocol: Traditional PK studies involve intermittent blood sampling and subsequent determination of drug concentrations in whole blood and plasma. The Culex automated blood sampler provides a way for blood withdrawal at preprogrammed intervals, which is more accurate and less labor intensive. Six rats in the PK group were implanted with a jugular vein catheter under an isofluorane anesthaesia. After the surgery, rats were allowed to recover for 96 hours with free access to food and water. The rats were dosed single i.v. at 3 mg/ml/kg with [^14C] DHA (20 μCi/kg), which was prepared as a 25% cremophore/0.9% saline solution, through the tail vein. […] PK evaluation of [^14C] DHA in plasma and whole blood, as well as unchanged DHA in plasma was conducted in individual rats.
Total radioactivity in the collected tissue samples were quantified in duplicate. Weighed tissue aliquots (~0.2 g) were digested overnight in 2 ml of Solvable® tissue solubilizer (Perkin-Elmer Life and Analytical Sciences, Boston, MA) at 50°C. Coloured samples were decolourized by adding a maximum of 0.2 ml of 30% H2O2 for 30–60 minutes. Scintillation cocktail (Hyonic Fluor; Perkin-Elmer Boston. Massachusetts, USA) was then added and radioactivity determined in a Perkin-Elmer Tri-Carb 3100 TR scintillation spectrophotometer (Packard Instrument Co., Downers Grove, Illinois, USA). Faeces and intestinal contents were thoroughly homogenized before taking aliquots. Plasma was also analysed using the HPLC-ECD system to measure the concentration of unchanged DHA, as described by Li et al.
The analysis of cold DHA in plasma was performed according to a previously described HPLC method with the following modifications: for simultaneous determination of artemisinin and DHA (artemisinin as an internal standard), the Agilent Eclipse XDB-C18 column 5 μm (4.6 × 150 mm) was used with an isocratic mobile phase consisting of 40% acetonitrile: 60% ESA Acid Metabolite A (70–4835) in the reductive mode (-400 mV) for the quantification of DHA. Validation and reproducibility were evaluated and a lower limit of quantitation (LLQ) of 2.31 ng/ml for DHA was determined. The inter- and intra-day coefficient of variation for accuracy and precision were all within ± 10%.
For pharmacokinetics, the concentration-time data of [^14C] DHA in plasma and whole blood collected during the 192 hour treatment period was fitted to a three-compartment open model using a nonlinear, extended least-square fitting procedure (WinNonlin 5.2, Pharsight Corporation, Cary, NC) using weighted (1/concentration) nonlinear regression. The area under the curve (AUC) was determined by the linear trapezoidal rule with extrapolation to infinity based on the concentration of the last time point divided by the terminal rate constant. Extrapolations to time zero were done using zero concentration for intravenous dosing and using C0 values determined from the three-compartment model equation at time zero by i.v. route. Mean clearance rate (CL) was determined by dividing the dose by the AUCinf for i.v. injection. Mean residence time (MRT) was determined by dividing the area under the first moment curve (AUMC) by the AUC. The volume of distribution at steady state (Vss) was calculated as the product of CL and MRT. The concentration-time data of unchanged DHA was fitted to a two-compartment open model. Statistical analysis was conducted with Microsoft Excel using a Student's t-test for dependent samples to compare means of paired and unpaired samples between two groups.

[2] = Mass balance and urinary/faecal elimination of [^14C] DHA; type: in vivo, rats; conditions: rats i.v.
Protocol: Metabolic cages were washed with a solution of 2% Count-off® (Perkin-Elmer Life and Analytical Sciences, Boston, Massachusetts, USA) and the volume was measured. Duplicate portions (0.1 ml urine; 1 ml cage rinse) of each sample were radio-assayed after the addition of scintillation cocktail. The weights of individual faecal samples were obtained and the samples were subsequently homogenized in four volumes of de-ionized water. Quadruplicate portions (1.0 ml) of each homogenate were decolourized with 30% hydrogen peroxide, and digested with Solvable® tissue solubilizer. After acidification with glacial acetic acid and addition of scintillation cocktail, samples were assayed for radioactivity. The samples were kept in at -20°C for two weeks prior to analysis.

rat plasma proteins = experiment: Protein binding of [^14C] DHA, equilibrium dialysis, rat plasma; type: in vitro ADME
Protocol: (§1) Human blood samples (five men and five women) were freshly obtained from subject volunteers at the Department of Clinical Trials, WRAIR. Rat samples were freshly collected from five male and five female rats. Equilibrium dialysis was performed using Teflon dialysis chambers and Diachema standard membranes as described by Li and Hümpel. The GD-4/90 Equilibrium Dialyzer (MM Developments, Ottawa) contained 20 micro-dialysis cells (2.0 ml/chamber). The molecular weight cutoff for dialysis membranes was 5000 D. Equilibrium was reached after four hours, when cells were rotated at 16 rpm and 37°C. Drugs were dissolved in plasma samples with various concentrations (0.15 – 57800 ng/ml) and all experiments were carried out for five hours.

human plasma proteins = experiment: Protein binding of [^14C] DHA, equilibrium dialysis, human plasma; type: in vitro ADME; conditions: both sexes; undiluted human plasma, 0.15 to 57800 ng/ml, 37°C, five hours; read-out: plasma protein binding percentage
Protocol: as §1

[3] = rats; cited from earlier work
[4] = unchanged DHA in plasma, rats single i.v. 3 mg/kg

C[C@H]1[C@@H](O)O[C@@H]2O[C@@]3(C)CC[C@H]4[C@H](C)CC[C@@H]1[C@@]24OO3 [DHA, 10'dihydro-artemisinin]
AUC(0-inf) ([1]; rat, iv, unchanged DHA in plasma, two-compartment, rats single i.v. 3 mg/kg): 0.933 ± 0.125 µg·h/mL | MRT ([1]; rat, iv, unchanged DHA in plasma, two-compartment, rats single i.v. 3 mg/kg, read-out: MRT): 29.4 ± 7.2 min | Vd ([1]; rat, iv, unchanged DHA in plasma, two-compartment, rats single i.v. 3 mg/kg, read-out: Vss): 1.66 ± 0.54 L/kg | AUC ([1]; rat, iv, unchanged DHA in plasma, rats i.v. 3 mg/kg): 0.933 µg·h/mL | Tmax ([1]; rat, iv, unchanged DHA in plasma, rats single i.v. 3 mg/kg, read-out: Tmax): 1.2 min | clearance ([1]; rat, plasma, iv, 3 mg/kg, unchanged DHA in plasma, two-compartment, rats single i.v. 3 mg/kg): 3.35 L/h/kg | Cmax ([1]; rat, plasma, iv, 3 mg/kg, unchanged DHA in plasma, two-compartment, rats single i.v. 3 mg/kg, read-out: Cmax): 2 ± 0.507 µg/mL | half-life ([1]; rat, plasma, iv, 3 mg/kg, unchanged DHA in plasma, two-compartment, rats single i.v. 3 mg/kg, read-out: t1/2 – alpha (converted)): 15 ± 2.4 min | half-life ([1]; rat, plasma, iv, 3 mg/kg, unchanged DHA in plasma, two-compartment, rats single i.v. 3 mg/kg, read-out: t1/2 – beta (terminal) (converted)): 61.8 ± 11.4 min | Cmax ([1]; rat, plasma, iv, 3 mg/kg, unchanged DHA in plasma, rats single i.v. 3 mg/kg, read-out: Cmax at first peak): 2 ± 0.507 µg/mL | Cmax ([1]; rat, plasma, iv, 3 mg/kg, unchanged DHA in plasma, rats single i.v. 3 mg/kg, read-out: Cmax at second peak): 1.64 ± 0.468 µg/mL | duration of total radioactivity (long-lasting metabolites) ([1]; rats, plasma, urine and faeces, single i.v. 3 mg/20 μCi/kg): > 192 h | time to complete elimination of unchanged DHA ([1]; rats, single i.v. 3 mg/kg): ≤ 6 h | CL ([1]; unchanged DHA in plasma, two-compartment, rats single i.v. 3 mg/kg, 3 mg/kg): 3.35002 ± 0.42337 L/h/kg | time of second peak ([1]; unchanged DHA in plasma, rats i.v. 3 mg/kg): 23 min | time of first peak [1, 4]: 0.02 h | time of second peak [1, 4]: 22.8 min | elimination via metabolism (hydrolysis and oxidation) [2]: 99% | unchanged DHA eliminated by direct excretion from kidneys [2]: < 1 % of dose | fraction unbound at 5 h (rat plasma proteins; both sexes, undiluted rat plasma, 0.15 to 57800 ng/ml, 37°C, five hours, read-out: plasma protein binding percentage): 0.18 to 0.24 | dependence of binding capacity on drug concentration (rat plasma proteins; rat plasma): not significantly different | fraction unbound at 5 h (human plasma proteins): 0.18 to 0.24

C[C@H]1[C@H](OC(=O)CCC(=O)O)O[C@@H]2O[C@@]3(C)CC[C@H]4[C@H](C)CC[C@@H]1[C@@]24OO3 [Artesunate]
plasma half-life of unchanged AS, first phase [3]: 8.4 min
